Reference: PMC8534050, “Discovery of a Potent and Highly Isoform-Selective Inhibitor of the Neglected Ribosomal Protein S6 Kinase Beta 2 (S6K2)” (Cancers, 2021)
Read-outs that look alike come from different tables or passages of the source.

What was measured:
[1] = target: T1, FGFR1 (Homo sapiens, UniProt P11362); experiment: DSF thermal shift assay; format: binding; conditions: inhibitor 10 μM, protein 2 μM
T1 construct: purchased in-house DSF (thermal shift) panel per Fedorov et al; IC50 follow-up at Reaction Biology Corp
Method: (§1) Differences in the melting temperature (ΔTm) were measured as described by Fedorov et al.. Purified proteins were buffered in 25 mM HEPES (pH 7.5), 500 mM NaCl and were assayed in a 384-well plate with a final protein concentration of 2 μM in 10 μL assay volume. Inhibitors were added to a final concentration of 10 μM using an ECHO 550 acoustic dispenser (Labcyte, San José, CA, USA). As a fluorescence probe, SYPRO-Orange (Molecular Probes, Eugene, OR, USA) was added in a 1:5000 dilution. […] Data were analyzed through Boltzmann equation in the Protein Thermal Shift software (Applied Biosystems, Waltham, MA, USA). Samples were measured in technical duplicates.

[2] = target: T2, STK38L (Homo sapiens, UniProt Q9Y2H1); experiment: DSF thermal shift assay; format: binding; conditions: inhibitor 10 μM, protein 2 μM
T2 construct: purchased in-house DSF (thermal shift) panel per Fedorov et al; IC50 follow-up at Reaction Biology Corp
Method: as §1

[3] = target: T3, MAPK14 (Homo sapiens, UniProt Q16539); experiment: DSF thermal shift assay; format: binding; conditions: inhibitor 10 μM, protein 2 μM
T3 construct: purchased in-house DSF (thermal shift) panel per Fedorov et al
Method: as §1

[4] = target: T4, TLK1 (Homo sapiens, UniProt Q9UKI8); experiment: DSF thermal shift assay; format: binding; conditions: inhibitor 10 μM, protein 2 μM
T4 construct: purchased in-house DSF (thermal shift) panel per Fedorov et al; IC50 follow-up at Reaction Biology Corp
Method: as §1

[5] = target: T5, FGFR2 (Homo sapiens, UniProt P21802); experiment: DSF thermal shift assay; format: binding; conditions: inhibitor 10 μM, protein 2 μM
T5 construct: purchased in-house DSF (thermal shift) panel per Fedorov et al
Method: as §1

[6] = target: T6, RPS6KA6 (Homo sapiens, UniProt Q9UK32); experiment: DSF thermal shift assay; format: binding; conditions: inhibitor 10 μM, protein 2 μM
T6 construct: purchased in-house DSF (thermal shift) panel per Fedorov et al
Method: as §1

[7] = target: T7, TTK1 (Homo sapiens, UniProt P33981); experiment: DSF thermal shift assay; format: binding; conditions: inhibitor 10 μM, protein 2 μM
T7 construct: purchased in-house DSF (thermal shift) panel per Fedorov et al
Method: as §1

[8] = target: T8, DMPK1 (Homo sapiens, UniProt Q09013); experiment: DSF thermal shift assay; format: binding; conditions: inhibitor 10 μM, protein 2 μM
T8 construct: purchased in-house DSF (thermal shift) panel per Fedorov et al
Method: as §1

[9] = target: T9, STK4 (Homo sapiens, UniProt Q13043); experiment: DSF thermal shift assay; format: binding; conditions: inhibitor 10 μM, protein 2 μM
T9 construct: purchased in-house DSF (thermal shift) panel per Fedorov et al; IC50 follow-up at Reaction Biology Corp
Method: as §1

[10] = target: T10, RPS6KA1 (Homo sapiens, UniProt Q15418); experiment: DSF thermal shift assay; format: binding; conditions: inhibitor 10 μM, protein 2 μM
T10 construct: purchased in-house DSF (thermal shift) panel per Fedorov et al
Method: as §1

[11] = target: T11, NEK1 (Homo sapiens, UniProt Q96PY6); experiment: DSF thermal shift assay; format: binding; conditions: inhibitor 10 μM, protein 2 μM
T11 construct: purchased in-house DSF (thermal shift) panel per Fedorov et al
Method: as §1

[12] = target: T12, BMX (Homo sapiens, UniProt P51813); experiment: DSF thermal shift assay; format: binding; conditions: inhibitor 10 μM, protein 2 μM
T12 construct: purchased in-house DSF (thermal shift) panel per Fedorov et al; IC50 follow-up at Reaction Biology Corp
Method: as §1

[13] = target: T13, CDKL1 (Homo sapiens, UniProt Q00532); experiment: DSF thermal shift assay; format: binding; conditions: inhibitor 10 μM, protein 2 μM
T13 construct: purchased in-house DSF (thermal shift) panel per Fedorov et al; IC50 follow-up at Reaction Biology Corp
Method: as §1

[14] = target: T14, CDK2 (Homo sapiens, UniProt P24941); experiment: DSF thermal shift assay; format: binding; conditions: inhibitor 10 μM, protein 2 μM
T14 construct: purchased in-house DSF (thermal shift) panel per Fedorov et al; IC50 follow-up at Reaction Biology Corp
Method: as §1

[15] = target: T15, PIM1 (Homo sapiens, UniProt P11309); experiment: DSF thermal shift assay; format: binding; conditions: inhibitor 10 μM, protein 2 μM
T15 construct: purchased in-house DSF (thermal shift) panel per Fedorov et al
Method: as §1

[16] = target: T16, CASK (Homo sapiens, UniProt O14936); experiment: DSF thermal shift assay; format: binding; conditions: inhibitor 10 μM, protein 2 μM
T16 construct: purchased in-house DSF (thermal shift) panel per Fedorov et al; IC50 follow-up at Reaction Biology Corp
Method: as §1

[17] = target: T17, CAMK1D (Homo sapiens, UniProt Q8IU85); experiment: DSF thermal shift assay; format: binding; conditions: inhibitor 10 μM, protein 2 μM
T17 construct: purchased in-house DSF (thermal shift) panel per Fedorov et al; IC50 follow-up at Reaction Biology Corp
Method: as §1

[18] = Nα-acetyl lysine stability assay (HPLC); format: physicochemical; conditions: for half-life: read-out: half-life t1/2 towards Nα-acetyl lysine (converted)
Method: The Nα-acetyl lysine stability assay was performed in analogy to the GSH stability assay by substituting GSH with Nα-acetyl lysine at pH 7.4 and additionally at pH 10.2 to mimic the pKa depression often observed for biologically relevant lysines. PBS-buffer was substituted with a sodium tetraborate buffer (28 mM) for experiments at pH 10.2.
4. Nα-Acetyl Lysine Stability Assay […]
h. The stability towards Nα-acetyl lysine at pH 10.2 was corrected for the slope of the curve of the […]
Figure S11. Nα-acetyl lysine stability assay of compound 2 at pH 7.4 and pH 10.2. Error bars represent the standard deviation of triplicate measurements. AUC: area under the curve of residual starting material 2, t: time in hours.

[19] = target: T18, SLK (Homo sapiens, UniProt Q9H2G2); experiment: DSF thermal shift assay; format: binding; conditions: SLK; inhibitor 10 μM, protein 2 μM; read-out: ΔTm
T18 construct: purchased in-house DSF (thermal shift) panel per Fedorov et al
Method: (§2) Differences in the melting temperature (ΔTm) were measured as described by Fedorov et al.. Purified proteins were buffered in 25 mM HEPES (pH 7.5), 500 mM NaCl and were assayed in a 384-well plate with a final protein concentration of 2 μM in 10 μL assay volume. Inhibitors were added to a final concentration of 10 μM using an ECHO 550 acoustic dispenser (Labcyte, San José, CA, USA). As a fluorescence probe, SYPRO-Orange (Molecular Probes, Eugene, OR, USA) was added in a 1:5000 dilution. Filters for excitation and emission were set to 465 nm and 590 nm, respectively. The temperature was increased from 25 °C with 3 °C/min to a final temperature of 95 °C, while scanning, using the QuantStudio5 (Applied Biosystems, Waltham, MA, USA). Data were analyzed through Boltzmann equation in the Protein Thermal Shift software (Applied Biosystems, Waltham, MA, USA). Samples were measured in technical duplicates.

[20] = target: T19, DCAMKL1 (Homo sapiens, UniProt O15075); experiment: DSF thermal shift assay; format: binding; conditions: DCAMKL1; inhibitor 10 μM, protein 2 μM; read-out: ΔTm
T19 construct: purchased in-house DSF (thermal shift) panel per Fedorov et al
Method: as §2

[21] = target: T20, PAK1 (Homo sapiens, UniProt Q13153); experiment: DSF thermal shift assay; format: binding; conditions: PAK1; inhibitor 10 μM, protein 2 μM; read-out: ΔTm
T20 construct: purchased in-house DSF (thermal shift) panel per Fedorov et al
Method: as §2

[22] = target: T21, STK39 (Homo sapiens, UniProt Q9UEW8); experiment: DSF thermal shift assay; format: binding; conditions: STK39; inhibitor 10 μM, protein 2 μM; read-out: ΔTm
T21 construct: purchased in-house DSF (thermal shift) panel per Fedorov et al; IC50 follow-up at Reaction Biology Corp
Method: as §2

[23] = target: T22, OSR1 (Homo sapiens, UniProt O95747); experiment: DSF thermal shift assay; format: binding; conditions: OSR1; inhibitor 10 μM, protein 2 μM; read-out: ΔTm
T22 construct: purchased in-house DSF (thermal shift) panel per Fedorov et al
Method: as §2

[24] = target: T23, PLK4 (Homo sapiens, UniProt O00444); experiment: DSF thermal shift assay; format: binding; conditions: PLK4; inhibitor 10 μM, protein 2 μM; read-out: ΔTm
T23 construct: purchased in-house DSF (thermal shift) panel per Fedorov et al
Method: as §2

[25] = target: T24, CAMK4 (Homo sapiens, UniProt Q16566); experiment: DSF thermal shift assay; format: binding; conditions: CAMK4; inhibitor 10 μM, protein 2 μM; read-out: ΔTm
T24 construct: purchased in-house DSF (thermal shift) panel per Fedorov et al
Method: as §2

[26] = target: T25, CAMKK2 (Homo sapiens, UniProt Q96RR4); experiment: DSF thermal shift assay; format: binding; conditions: CAMKK2; inhibitor 10 μM, protein 2 μM; read-out: ΔTm
T25 construct: purchased in-house DSF (thermal shift) panel per Fedorov et al
Method: as §2

T7 sequence (P33981 whole entry): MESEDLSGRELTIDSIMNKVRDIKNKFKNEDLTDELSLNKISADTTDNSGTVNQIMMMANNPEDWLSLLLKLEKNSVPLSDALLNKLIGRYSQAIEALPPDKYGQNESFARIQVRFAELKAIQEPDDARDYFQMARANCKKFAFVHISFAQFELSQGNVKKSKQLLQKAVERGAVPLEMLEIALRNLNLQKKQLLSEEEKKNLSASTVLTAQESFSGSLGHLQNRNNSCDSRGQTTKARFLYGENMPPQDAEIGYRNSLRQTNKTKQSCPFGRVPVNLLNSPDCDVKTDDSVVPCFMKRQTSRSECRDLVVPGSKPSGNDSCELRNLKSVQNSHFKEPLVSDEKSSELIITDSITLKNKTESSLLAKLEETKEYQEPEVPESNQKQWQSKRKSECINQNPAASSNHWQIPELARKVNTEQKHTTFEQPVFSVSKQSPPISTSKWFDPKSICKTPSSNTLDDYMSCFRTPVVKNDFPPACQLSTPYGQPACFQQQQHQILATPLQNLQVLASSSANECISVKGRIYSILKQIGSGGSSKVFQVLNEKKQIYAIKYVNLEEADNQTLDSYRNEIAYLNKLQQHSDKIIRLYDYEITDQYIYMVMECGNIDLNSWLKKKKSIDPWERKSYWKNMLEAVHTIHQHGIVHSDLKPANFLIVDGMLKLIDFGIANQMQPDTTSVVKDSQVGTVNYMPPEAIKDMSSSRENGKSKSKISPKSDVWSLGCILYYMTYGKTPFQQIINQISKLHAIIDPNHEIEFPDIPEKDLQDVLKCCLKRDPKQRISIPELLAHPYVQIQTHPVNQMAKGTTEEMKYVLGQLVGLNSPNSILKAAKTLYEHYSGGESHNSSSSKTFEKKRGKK
T2 sequence (Q9Y2H1 whole entry): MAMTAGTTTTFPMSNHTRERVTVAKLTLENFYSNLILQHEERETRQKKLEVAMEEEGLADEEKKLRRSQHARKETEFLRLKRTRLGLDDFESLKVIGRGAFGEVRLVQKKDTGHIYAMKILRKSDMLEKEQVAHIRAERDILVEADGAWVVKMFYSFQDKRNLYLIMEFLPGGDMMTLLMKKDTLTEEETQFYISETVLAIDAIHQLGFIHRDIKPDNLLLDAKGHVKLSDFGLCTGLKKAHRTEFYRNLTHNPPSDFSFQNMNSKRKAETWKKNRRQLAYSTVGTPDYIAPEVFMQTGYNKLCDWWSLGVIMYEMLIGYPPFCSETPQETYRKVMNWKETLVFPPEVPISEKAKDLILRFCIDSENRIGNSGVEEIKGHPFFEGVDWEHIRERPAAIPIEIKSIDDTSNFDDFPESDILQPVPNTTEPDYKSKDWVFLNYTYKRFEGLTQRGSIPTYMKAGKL
T22 sequence (O95747 whole entry): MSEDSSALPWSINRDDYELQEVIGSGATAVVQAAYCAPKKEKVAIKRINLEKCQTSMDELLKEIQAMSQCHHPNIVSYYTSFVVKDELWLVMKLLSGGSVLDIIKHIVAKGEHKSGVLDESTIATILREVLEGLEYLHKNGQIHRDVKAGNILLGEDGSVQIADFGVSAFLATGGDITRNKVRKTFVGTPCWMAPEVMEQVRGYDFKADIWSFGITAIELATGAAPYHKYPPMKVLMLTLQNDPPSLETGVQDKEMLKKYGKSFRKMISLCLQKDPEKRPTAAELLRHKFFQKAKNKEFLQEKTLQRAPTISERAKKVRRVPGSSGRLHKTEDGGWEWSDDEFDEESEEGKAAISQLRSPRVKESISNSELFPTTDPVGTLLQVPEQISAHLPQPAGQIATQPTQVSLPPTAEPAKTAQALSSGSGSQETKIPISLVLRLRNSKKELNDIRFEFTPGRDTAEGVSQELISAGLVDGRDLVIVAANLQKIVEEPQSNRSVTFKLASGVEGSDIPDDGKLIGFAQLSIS
T12 sequence (P51813 whole entry): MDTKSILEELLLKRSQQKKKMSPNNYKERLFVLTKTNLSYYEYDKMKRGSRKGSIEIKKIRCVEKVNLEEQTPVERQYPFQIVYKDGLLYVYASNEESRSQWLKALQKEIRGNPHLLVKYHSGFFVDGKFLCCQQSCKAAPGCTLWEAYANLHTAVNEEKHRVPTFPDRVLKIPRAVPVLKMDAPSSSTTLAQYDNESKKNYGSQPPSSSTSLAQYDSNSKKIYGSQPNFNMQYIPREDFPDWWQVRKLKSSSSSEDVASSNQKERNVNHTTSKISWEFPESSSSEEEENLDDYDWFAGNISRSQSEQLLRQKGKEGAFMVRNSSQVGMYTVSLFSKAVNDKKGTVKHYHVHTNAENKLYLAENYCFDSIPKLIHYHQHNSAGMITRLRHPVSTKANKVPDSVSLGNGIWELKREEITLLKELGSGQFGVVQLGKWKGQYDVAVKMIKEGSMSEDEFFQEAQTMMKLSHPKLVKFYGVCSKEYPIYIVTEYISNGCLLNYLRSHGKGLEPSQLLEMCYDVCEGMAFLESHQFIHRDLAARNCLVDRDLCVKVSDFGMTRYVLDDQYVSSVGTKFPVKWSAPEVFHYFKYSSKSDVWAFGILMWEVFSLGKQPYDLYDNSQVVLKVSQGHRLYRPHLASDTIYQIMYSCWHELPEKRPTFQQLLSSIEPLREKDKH
T8 sequence (Q09013 whole entry): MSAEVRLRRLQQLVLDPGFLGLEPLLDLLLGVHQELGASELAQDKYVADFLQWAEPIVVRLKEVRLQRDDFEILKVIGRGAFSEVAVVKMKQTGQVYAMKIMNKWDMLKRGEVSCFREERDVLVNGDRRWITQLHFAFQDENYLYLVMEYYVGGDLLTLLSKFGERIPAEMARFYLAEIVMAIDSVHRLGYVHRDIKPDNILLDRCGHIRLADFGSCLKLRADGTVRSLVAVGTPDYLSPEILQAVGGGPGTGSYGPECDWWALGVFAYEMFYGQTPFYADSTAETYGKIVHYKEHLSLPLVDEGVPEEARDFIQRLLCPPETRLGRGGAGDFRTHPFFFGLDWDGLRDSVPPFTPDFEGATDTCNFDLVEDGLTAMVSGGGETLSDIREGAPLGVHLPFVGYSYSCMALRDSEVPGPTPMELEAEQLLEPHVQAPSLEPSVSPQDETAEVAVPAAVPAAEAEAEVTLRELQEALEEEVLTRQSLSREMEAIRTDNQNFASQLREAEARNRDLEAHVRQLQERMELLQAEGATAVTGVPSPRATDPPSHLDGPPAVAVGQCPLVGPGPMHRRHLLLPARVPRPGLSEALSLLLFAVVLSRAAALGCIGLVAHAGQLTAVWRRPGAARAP
T4 sequence (Q9UKI8 whole entry): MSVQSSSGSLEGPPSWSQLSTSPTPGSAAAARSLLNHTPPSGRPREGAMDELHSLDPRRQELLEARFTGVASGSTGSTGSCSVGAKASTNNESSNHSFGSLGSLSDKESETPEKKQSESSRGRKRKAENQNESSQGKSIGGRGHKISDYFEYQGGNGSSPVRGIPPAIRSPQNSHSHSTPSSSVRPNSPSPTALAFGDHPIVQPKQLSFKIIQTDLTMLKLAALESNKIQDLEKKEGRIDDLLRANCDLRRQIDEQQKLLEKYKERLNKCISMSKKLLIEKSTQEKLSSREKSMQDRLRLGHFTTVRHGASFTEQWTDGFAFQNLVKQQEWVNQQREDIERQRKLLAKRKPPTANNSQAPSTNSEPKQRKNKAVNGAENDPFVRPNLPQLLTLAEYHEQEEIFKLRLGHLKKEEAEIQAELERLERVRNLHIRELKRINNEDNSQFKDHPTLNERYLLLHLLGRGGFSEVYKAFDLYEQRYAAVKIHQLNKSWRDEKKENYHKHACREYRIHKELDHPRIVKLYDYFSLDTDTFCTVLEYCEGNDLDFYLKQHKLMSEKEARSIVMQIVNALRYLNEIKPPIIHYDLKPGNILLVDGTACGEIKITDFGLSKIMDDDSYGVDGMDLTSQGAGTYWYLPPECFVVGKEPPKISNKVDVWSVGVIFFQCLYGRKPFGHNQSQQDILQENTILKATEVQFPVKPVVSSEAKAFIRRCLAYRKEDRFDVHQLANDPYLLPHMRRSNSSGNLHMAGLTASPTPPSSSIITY
T6 sequence (Q9UK32 whole entry): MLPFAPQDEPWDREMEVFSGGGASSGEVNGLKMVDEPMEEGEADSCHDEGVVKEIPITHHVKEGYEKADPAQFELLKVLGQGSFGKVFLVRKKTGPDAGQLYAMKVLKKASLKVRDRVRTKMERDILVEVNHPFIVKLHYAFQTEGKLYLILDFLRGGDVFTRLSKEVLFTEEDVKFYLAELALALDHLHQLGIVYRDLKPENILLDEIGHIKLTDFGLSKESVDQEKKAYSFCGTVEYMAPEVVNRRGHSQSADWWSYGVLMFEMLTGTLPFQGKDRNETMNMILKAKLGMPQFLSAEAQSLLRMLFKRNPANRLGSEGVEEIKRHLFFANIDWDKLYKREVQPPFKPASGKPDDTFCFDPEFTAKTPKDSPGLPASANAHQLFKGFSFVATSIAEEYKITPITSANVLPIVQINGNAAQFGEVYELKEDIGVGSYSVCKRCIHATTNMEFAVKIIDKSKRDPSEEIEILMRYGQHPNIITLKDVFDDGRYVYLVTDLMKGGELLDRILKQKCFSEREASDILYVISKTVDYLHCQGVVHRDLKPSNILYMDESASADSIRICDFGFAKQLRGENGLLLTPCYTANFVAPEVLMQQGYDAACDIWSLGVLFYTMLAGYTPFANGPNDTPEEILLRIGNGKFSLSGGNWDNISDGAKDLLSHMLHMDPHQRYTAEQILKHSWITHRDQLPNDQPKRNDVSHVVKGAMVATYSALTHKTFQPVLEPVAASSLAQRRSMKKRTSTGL
T17 sequence (Q8IU85 whole entry): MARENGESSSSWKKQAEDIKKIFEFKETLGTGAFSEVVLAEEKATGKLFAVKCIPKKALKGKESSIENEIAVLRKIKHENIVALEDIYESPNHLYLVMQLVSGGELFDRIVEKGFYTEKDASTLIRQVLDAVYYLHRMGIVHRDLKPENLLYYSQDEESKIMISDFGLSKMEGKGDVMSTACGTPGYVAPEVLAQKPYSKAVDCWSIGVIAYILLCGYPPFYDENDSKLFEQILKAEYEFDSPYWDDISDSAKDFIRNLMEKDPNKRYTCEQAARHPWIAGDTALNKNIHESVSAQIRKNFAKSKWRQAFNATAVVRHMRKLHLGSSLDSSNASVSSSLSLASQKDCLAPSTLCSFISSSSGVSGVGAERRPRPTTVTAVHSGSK

In the case of `CCc1cnc(Nc2nc(Cl)ccc2[N+](=O)[O-])nc1N1CCN(Cc2nc3cc(C(F)(F)F)ccc3[nH]2)CC1` [Compound 2], the ΔTm at 10 µM [1] is reported as 0.4 °C, the ΔTm at 10 µM [2] is reported as -0.2 °C and the ΔTm at 10 µM [3] is reported as -0.5 °C. For the same molecule, the ΔTm at 10 µM [4] was 0 °C, the ΔTm at 10 µM [5] was 0.3 °C and the ΔTm at 10 µM [6] was 0.6 °C. It also gave a ΔTm at 10 µM [7] of 1.5 °C, a ΔTm at 10 µM [8] of 0.2 °C and a ΔTm at 10 µM [9] of -0.5 °C. It also gave a ΔTm at 10 µM [10] of 0.3 °C, a ΔTm at 10 µM [11] of -0.7 °C and a ΔTm at 10 µM [12] of -0.5 °C. It also gave a ΔTm at 10 µM [13] of -0.4 °C, a ΔTm at 10 µM [14] of -0.2 °C and a ΔTm at 10 µM [15] of -0.6 °C. For the same molecule, the ΔTm at 10 µM [16] was -0.9 °C, the ΔTm at 10 µM [17] was 1.1 °C and the half-life ([18]; Nα-acetyl lysine in MeCN/PBS buffer, pH 7.4) was 48.1 days. For the same molecule, the half-life ([18]; Nα-acetyl lysine in sodium tetraborate buffer (28 mM), pH 10.2, corrected for aqueous degradation) was 1.12 days, the “reactivity towards Nα-acetyl lysine” value ([18]; physiological pH) was “negligible reactivity” and the ΔTm at 10 µM [19] was 1.9 °C. It also gave a ΔTm at 10 µM [20] of 0.2 °C, a ΔTm at 10 µM [21] of -0.5 °C and a ΔTm at 10 µM [22] of 0.6 °C. For the same molecule, the ΔTm at 10 µM [23] was 0.4 °C, the ΔTm at 10 µM [24] was 0.2 °C and the ΔTm at 10 µM [25] was 0.1 °C. For the same molecule, the ΔTm at 10 µM [26] was 0.6 °C.
